The values that follow come from patent US20200016159A1, “N3-CYCLICALLY SUBSTITUTED THIENOURACILS AND USE THEREOF” (Bayer Aktiengesellschaft, priority 2016, published 2020).

The structures appear in SMILES notation.

The assay concerns the target T1, human adenosine A2b receptor (Homo sapiens, UniProt P29275).
T1 sequence (P29275 1-332): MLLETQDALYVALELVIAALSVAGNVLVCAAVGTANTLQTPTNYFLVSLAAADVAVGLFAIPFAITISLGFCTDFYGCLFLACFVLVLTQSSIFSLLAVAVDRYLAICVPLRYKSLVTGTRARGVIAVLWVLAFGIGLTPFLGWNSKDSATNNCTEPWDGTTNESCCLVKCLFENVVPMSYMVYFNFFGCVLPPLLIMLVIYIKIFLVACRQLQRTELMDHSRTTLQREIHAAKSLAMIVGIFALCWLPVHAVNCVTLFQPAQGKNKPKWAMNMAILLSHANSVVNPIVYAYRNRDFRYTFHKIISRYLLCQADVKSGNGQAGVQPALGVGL
Description: Cellular in vitro reporter gene test for A2b receptor activity (antagonism of NECA). The assay is classed as cell-based. Further details: expressed in transfected cells; host or cells: CHO-K1 (Chinese hamster ovary) with CRE-luciferase reporter. The following applies: recombinant CHO-K1 cells, CRE-luciferase reporter, co-incubation with EC50 concentration of NECA, 3 hours. In outline: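 CHO-K1 cells expressing recombinant human A2b receptor plus a CRE-driven firefly luciferase reporter. Compounds co-incubated with NECA at its same-day EC50 concentration; luminescence read 3 hours after NECA addition. IC50 values, sometimes means of several determinations rounded to two significant figures.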
(Reporter assays use an easily measured gene product as a stand-in for the process of interest.)
With `Cc1c(CN2CCNC2=O)sc2c1c(=O)n(C1CC1C)c(=O)n2CCSC(F)(F)F` (single isomer, unassigned) [Example 281, 5-Methyl-3-(2-methylcyclopropyl)-6-[(2-oxoimidazolidin-1-yl)methyl]-1-{2-[(trifluoromethyl)sulfanyl]ethyl}thieno[2,3-d]pyrimidine-2,4(1H,3H)-dione], the concentration for half-maximal inhibition (IC50) amounted to 0.0021 µM. For `Cc1c(Cn2nc[nH]c2=O)sc2c1c(=O)n(C1(C)CC1)c(=O)n2CC1CC1(F)F` (single isomer, unassigned) [Example 67, 1-[(2,2-Difluorocyclopropyl)methyl]-5-methyl-3-(1-methylcyclopropyl)-6-[(5-oxo-4,5-dihydro-1H-1,2,4-triazol-1-yl)methyl]thieno[2,3-d]pyrimidine-2,4(1H,3H)-dione], the IC50 was determined as 0.054 µM. Turning to `Cc1c(CN2CCNC2=O)sc2c1c(=O)n(C1CC1C)c(=O)n2CCSC(F)(F)F` (racemic) [Example 279, 5-Methyl-3-(2-methylcyclopropyl)-6-[(2-oxoimidazolidin-1-yl)methyl]-1-{2-[(trifluoromethyl)sulfanyl]ethyl}thieno[2,3-d]pyrimidine-2,4(1H,3H)-dione], the IC50 is 0.0016 µM. As for `Cc1c(CN2CCNC2=O)sc2c1c(=O)n(C1CC1C)c(=O)n2CCOC(F)(F)F` (racemic) [Example 261, 5-Methyl-3-(2-methylcyclopropyl)-6-[(2-oxoimidazolidin-1-yl)methyl]-1-[2-(trifluoromethoxy)ethyl]thieno[2,3-d]pyrimidine-2,4(1H,3H)-dione], the IC50 stood at 0.015 µM.

As for `Cc1c(CN2CCNC2=O)sc2c1c(=O)n(C1CC1C)c(=O)n2CC1CCOC1` (single isomer, unassigned) [Example 291, 5-Methyl-3-(2-methylcyclopropyl)-6-[(2-oxoimidazolidin-1-yl)methyl]-1-(tetrahydrofuran-3-ylmethyl)thieno[2,3-d]pyrimidine-2,4(1H,3H)-dione], the IC50 was 0.019 µM. On to `Cc1c(Cn2cc[nH]c2=O)sc2c1c(=O)n(C1CC1C)c(=O)n2CCOC(F)(F)F` (single isomer, unassigned) [Example 271, 5-Methyl-3-(2-methylcyclopropyl)-6-[(2-oxo-2,3-dihydro-1H-imidazol-1-yl)methyl]-1-[2-(trifluoromethoxy)ethyl]thieno[2,3-d]pyrimidine-2,4(1H,3H)-dione], for which the IC50 turned out to be 0.0014 µM. In the case of `COCCn1c(=O)n(C2CC2C)c(=O)c2c(C)c(CN3CCNC3=O)sc21` (single isomer, unassigned) [Example 260, 1-(2-Methoxyethyl)-5-methyl-3-(2-methylcyclopropyl)-6-[(2-oxoimidazolidin-1-yl)methyl]thieno[2,3-d]pyrimidine-2,4(1H,3H)-dione], the IC50 came out at 0.082 µM. The result for `Cc1c(CN2CCNC2=O)sc2c1c(=O)n(C1CC1C)c(=O)n2CCSC(F)(F)F` (single isomer, unassigned) [Example 280, 5-Methyl-3-(2-methylcyclopropyl)-6-[(2-oxoimidazolidin-1-yl)methyl]-1-{2-[(trifluoromethyl)sulfanyl]ethyl}thieno[2,3-d]pyrimidine-2,4(1H,3H)-dione] reads 0.0034 µM; that for `COCCn1c(=O)n(C2(C(F)(F)F)CC2)c(=O)c2c(C)c(CN3CCNC3=O)sc21` [Example 85, 1-(2-Methoxyethyl)-5-methyl-6-[(2-oxoimidazolidin-1-yl)methyl]-3-[1-(trifluoromethyl)cyclopropyl]thieno[2,3-d]pyrimidine-2,4(1H,3H)-dione], 0.31 µM. On to `Cc1c(Cn2cc[nH]c2=O)sc2c1c(=O)n(C1(C)CC1)c(=O)n2CCC(F)(F)F` [Example 214, 5-Methyl-3-(1-methylcyclopropyl)-6-[(2-oxo-2,3-dihydro-1H-imidazol-1-yl)methyl]-1-(3,3,3-trifluoropropyl)thieno[2,3-d]pyrimidine-2,4(1H,3H)-dione], for which the IC50 is 0.01 µM.

Take `COCCn1c(=O)n(C2CCCC2)c(=O)c2c(C)c(CN3CCNC3=NC(=O)OC)sc21` [Example 191, Methyl [1-{[3-cyclopentyl-1-(2-methoxyethyl)-5-methyl-2,4-dioxo-1,2,3,4-tetrahydrothieno[2,3-d]pyrimidin-6-yl]methyl}imidazolidin-2-ylidene]carbamate]: the IC50 was determined as 0.018 µM. Next, `COCCn1c(=O)n(C2CC2C)c(=O)c2c(C)c(CN3CCNC3=O)sc21` (single isomer, unassigned) [Example 95, 1-(2-Methoxyethyl)-5-methyl-3-(2-methylcyclopropyl)-6-[(2-oxoimidazolidin-1-yl)methyl]thieno[2,3-d]pyrimidine-2,4(1H,3H)-dione]: 0.026 µM. With `Cc1c(CN2CCNC2=O)sc2c1c(=O)n(C1CC1(C)C)c(=O)n2CCC(F)(F)F` (single isomer, unassigned) [Example 102, 3-(2,2-Dimethylcyclopropyl)-5-methyl-6-[(2-oxoimidazolidin-1-yl)methyl]-1-(3,3,3-trifluoropropyl)thieno[2,3-d]pyrimidine-2,4(1H,3H)-dione], the IC50 worked out at 0.0073 µM.

Consider `Cc1c(CN2CCNC2=O)sc2c1c(=O)n(C1CC1)c(=O)n2CC1CC1(F)F` (racemic) [Example 19, 3-Cyclopropyl-1-[(2,2-difluorocyclopropyl)methyl]-5-methyl-6-[(2-oxoimidazolidin-1-yl)methyl]thieno[2,3-d]pyrimidine-2,4(1H,3H)-dione (racemate)], for which the IC50 worked out at 0.019 µM. For the molecule `Cc1c(Cn2nc[nH]c2=O)sc2c1c(=O)n(C1(C)CC1)c(=O)n2C[C@H]1CCCO1` [Example 83, 5-Methyl-3-(1-methylcyclopropyl)-6-[(5-oxo-4,5-dihydro-1H-1,2,4-triazol-1-yl)methyl]-1-[(2R)-tetrahydrofuran-2-ylmethyl]thieno[2,3-d]pyrimidine-2,4(1H, 3H)-dione], the IC50 came to 0.13 µM. On to `CCC1CC1n1c(=O)c2c(C)c(CN3CCNC3=O)sc2n(CCOC)c1=O` (single isomer, unassigned) [Example 301, 3-(2-Ethylcyclopropyl)-1-(2-methoxyethyl)-5-methyl-6-[(2-oxoimidazolidin-1-yl)methyl]thieno[2,3-d]pyrimidine-2,4(1H,3H)-dione], for which the IC50 is 0.064 µM.

As for `COCCn1c(=O)n(C2(C)CCC2)c(=O)c2c(C)c(CN3CCNC3=NC(=O)OC)sc21` [Example 141, Methyl [1-{[1-(2-methoxyethyl)-5-methyl-3-(1-methylcyclobutyl)-2,4-dioxo-1,2,3,4-tetrahydrothieno[2,3-d]pyrimidin-6-yl]methyl}imidazolidine-2-ylidene]carbamate], the IC50 is 0.11 µM. `Cc1c(CN2CCNC2=NC#N)sc2c1c(=O)n(C1CC1)c(=O)n2CCCF` [Example 7, [1-{[3-Cyclopropyl-1-(3-fluoropropyl)-5-methyl-2,4-dioxo-1,2,3,4-tetrahydrothieno[2,3-d]pyrimidin-6-yl]methyl}imidazolidin-2-ylidene]cyanamide]: the IC50 worked out at 0.018 µM.

Take `Cc1c(CN2CCNC2=NC#N)sc2c1c(=O)n(C1CC(F)(F)C1)c(=O)n2CCC(F)(F)F` [Example 121, [1-{[3-(3,3-Difluorocyclobutyl)-5-methyl-2,4-dioxo-1-(3,3,3-trifluoropropyl)-1,2,3,4-tetrahydrothieno[2,3-d]pyrimidin-6-yl]methyl}imidazolidin-2-ylidene]cyanamide]: the IC50 came to 0.015 µM. Consider `Cc1c(CN2CCNC2=O)sc2c1c(=O)n([C@H]1C[C@@H]1C)c(=O)n2CC1COC1` [Example 285, 5-Methyl-3-[(1S,2S)-2-methylcyclopropyl]-1-(oxetan-3-ylmethyl)-6-[(2-oxoimidazoliddin-1-yl)methyl]thieno[2,3-d]pyrimidine-2,4(1H,3H)-dione], for which the IC50 amounted to 0.0041 µM. The result for `COCCn1c(=O)n(C2(C)CC2)c(=O)c2c(C)c(CN3CCNC3=NC#N)sc21` [Example 71, [1-{[1-(2-Methoxyethyl)-5-methyl-3-(1-methylcyclopropyl)-2,4-dioxo-1,2,3,4-tetrahydrothieno[2,3-d]pyrimidin-6-yl]methyl}imidazolidine-2-ylidene]cyanamide] reads 0.012 µM; that for `Cc1c(CN2CCNC2=NC#N)sc2c1c(=O)n(C1CCC1)c(=O)n2CCC(F)(F)F` [Example 111, [1-{[3-Cyclobutyl-5-methyl-2,4-dioxo-1-(3,3,3-trifluoropropyl)-1,2,3,4-tetrahydrothieno[2,3-d]pyrimidin-6-yl]methyl}imidazolidin-2-ylidene]cyanamide], 0.0017 µM. In the case of `COCCn1c(=O)n(C2CC2C(F)(F)F)c(=O)c2c(C)c(CN3CCNC3=O)sc21` (single isomer, unassigned) [Example 295, 1-(2-Methoxyethyl)-5-methyl-6-[(2-oxoimidazolidin-1-yl)methyl]-3-[2-(trifluoromethyl)cyclopropyl]thieno[2,3-d]pyrimidine-2,4(1H,3H)-dione], the 50% inhibitory concentration (IC50) was determined as 0.12 µM.

As for `COCCn1c(=O)n(C2CC2OC)c(=O)c2c(C)c(CN3CCNC3=O)sc21` (single isomer, unassigned) [Example 308, 3-(2-Methoxycyclopropyl)-1-(2-methoxyethyl)-5-methyl-6-[(2-oxoimidazolidin-1-yl)methyl]thieno[2,3-d]pyrimidine-2,4(1H,3H)-dione], the IC50 stood at 0.87 µM.

A word on the IC50: it is the midpoint of a concentration-inhibition curve.
